Data: the NIST ThermoML archive (doi:10.1021/je100190e)
Numbers after ± are expanded uncertainties.

Experiment: mn = molality of the nth substance listed, in mol/kg
Conditions: 101 kPa, Liquid

CC(=O)[O-].[Na+] [sodium ethanoate] + O
mass density (303.15 K, m1 = 1): 1032.9 ± 1.2 kg/m3
mass density (308.15 K, m1 = 1): 1031.8 ± 1.2 kg/m3
mass density (313.15 K, m1 = 1): 1029.3 ± 1.3 kg/m3
mass density (318.15 K, m1 = 1): 1027.5 ± 1.3 kg/m3
mass density (323.15 K, m1 = 1): 1025.4 ± 1.3 kg/m3

O [water] + Cl.NCCCC[C@H](N)C(=O)O
mass density (323.15 K, m2 = 0): 988 ± 1.2 kg/m3

O [water] + N[C@@H](Cc1c[nH]cn1)C(=O)O
mass density (323.15 K, m2 = 0): 988 ± 1.2 kg/m3

Cl.NCCCC[C@H](N)C(=O)O [L-lysine monohydrochloride] + O
mass density (303.15 K, m1 = 0.0302): 997.3 ± 1 kg/m3
mass density (303.15 K, m1 = 0.0606): 999 ± 1 kg/m3
mass density (303.15 K, m1 = 0.0913): 1000.7 ± 1 kg/m3
mass density (303.15 K, m1 = 0.1224): 1002.4 ± 1 kg/m3
mass density (303.15 K, m1 = 0.1536): 1004.1 ± 1 kg/m3
mass density (308.15 K, m1 = 0.0302): 995.7 ± 1.1 kg/m3
mass density (308.15 K, m1 = 0.0606): 997.4 ± 1.1 kg/m3
mass density (308.15 K, m1 = 0.0913): 999.1 ± 1.1 kg/m3
mass density (308.15 K, m1 = 0.1224): 1000.8 ± 1.1 kg/m3
mass density (308.15 K, m1 = 0.1536): 1002.5 ± 1.1 kg/m3
mass density (313.15 K, m1 = 0.0302): 993.9 ± 1.1 kg/m3
mass density (313.15 K, m1 = 0.0606): 995.6 ± 1.1 kg/m3
mass density (313.15 K, m1 = 0.0913): 997.3 ± 1.1 kg/m3
mass density (313.15 K, m1 = 0.1224): 999 ± 1.1 kg/m3
mass density (313.15 K, m1 = 0.1536): 1000.7 ± 1.1 kg/m3
mass density (318.15 K, m1 = 0.0302): 991.9 ± 1.2 kg/m3
mass density (318.15 K, m1 = 0.0606): 993.6 ± 1.2 kg/m3
mass density (318.15 K, m1 = 0.0913): 995.3 ± 1.2 kg/m3
mass density (318.15 K, m1 = 0.1224): 997 ± 1.2 kg/m3
mass density (318.15 K, m1 = 0.1536): 998.7 ± 1.2 kg/m3
mass density (323.15 K, m1 = 0.0302): 989.7 ± 1.2 kg/m3
mass density (323.15 K, m1 = 0.0606): 991.4 ± 1.2 kg/m3
mass density (323.15 K, m1 = 0.0913): 993.1 ± 1.2 kg/m3
mass density (323.15 K, m1 = 0.1224): 994.8 ± 1.2 kg/m3
mass density (323.15 K, m1 = 0.1536): 996.4 ± 1.2 kg/m3

CC(=O)[O-].[K+] [potassium ethanoate] + O
mass density (303.15 K, m1 = 1): 1039.7 ± 1.2 kg/m3
mass density (308.15 K, m1 = 1): 1038.1 ± 1.2 kg/m3
mass density (313.15 K, m1 = 1): 1036.1 ± 1.3 kg/m3
mass density (318.15 K, m1 = 1): 1033.5 ± 1.3 kg/m3
mass density (323.15 K, m1 = 1): 1032 ± 1.4 kg/m3

N[C@@H](Cc1c[nH]cn1)C(=O)O [L-histidine] + O
mass density (303.15 K, m1 = 0.0303): 997.3 ± 1 kg/m3
mass density (303.15 K, m1 = 0.0606): 998.9 ± 1 kg/m3
mass density (303.15 K, m1 = 0.0913): 1000.6 ± 1 kg/m3
mass density (303.15 K, m1 = 0.1221): 1002.2 ± 1 kg/m3
mass density (303.15 K, m1 = 0.1526): 1003.8 ± 1 kg/m3
mass density (308.15 K, m1 = 0.0303): 995.7 ± 1.1 kg/m3
mass density (308.15 K, m1 = 0.0606): 997.3 ± 1.1 kg/m3
mass density (308.15 K, m1 = 0.0913): 999 ± 1.1 kg/m3
mass density (308.15 K, m1 = 0.1221): 1000.6 ± 1.1 kg/m3
mass density (308.15 K, m1 = 0.1526): 1002.2 ± 1.1 kg/m3
mass density (313.15 K, m1 = 0.0303): 993.9 ± 1.1 kg/m3
mass density (313.15 K, m1 = 0.0606): 995.5 ± 1.1 kg/m3
mass density (313.15 K, m1 = 0.0913): 997.2 ± 1.1 kg/m3
mass density (313.15 K, m1 = 0.1221): 998.8 ± 1.1 kg/m3
mass density (313.15 K, m1 = 0.1526): 1000.4 ± 1.1 kg/m3
mass density (318.15 K, m1 = 0.0303): 991.9 ± 1.2 kg/m3
mass density (318.15 K, m1 = 0.0606): 993.5 ± 1.2 kg/m3
mass density (318.15 K, m1 = 0.0913): 995.2 ± 1.2 kg/m3
mass density (318.15 K, m1 = 0.1221): 996.8 ± 1.2 kg/m3
mass density (318.15 K, m1 = 0.1526): 998.4 ± 1.2 kg/m3
mass density (323.15 K, m1 = 0.0303): 989.7 ± 1.2 kg/m3
mass density (323.15 K, m1 = 0.0606): 991.3 ± 1.2 kg/m3
mass density (323.15 K, m1 = 0.0913): 993 ± 1.2 kg/m3
mass density (323.15 K, m1 = 0.1221): 994.6 ± 1.2 kg/m3
mass density (323.15 K, m1 = 0.1526): 996.2 ± 1.2 kg/m3

O [water] + N=C(N)NCCC[C@H](N)C(=O)O
mass density (323.15 K, m2 = 0): 988 ± 1.2 kg/m3

CC(=O)[O-].CC(=O)[O-].[Ca+2] [calcium acetate] + O
mass density (303.15 K, m1 = 1): 1075.1 ± 1.2 kg/m3
mass density (308.15 K, m1 = 1): 1073.2 ± 1.3 kg/m3
mass density (313.15 K, m1 = 1): 1071.6 ± 1.3 kg/m3
mass density (318.15 K, m1 = 1): 1069.3 ± 1.4 kg/m3
mass density (323.15 K, m1 = 1): 1067.1 ± 1.4 kg/m3

N=C(N)NCCC[C@H](N)C(=O)O [L-arginine] + O
mass density (303.15 K, m1 = 0.0302): 997.1 ± 1 kg/m3
mass density (303.15 K, m1 = 0.0607): 998.6 ± 1 kg/m3
mass density (303.15 K, m1 = 0.0914): 1000.1 ± 1 kg/m3
mass density (303.15 K, m1 = 0.122): 1001.5 ± 1 kg/m3
mass density (303.15 K, m1 = 0.1533): 1003 ± 1 kg/m3
mass density (308.15 K, m1 = 0.0302): 995.5 ± 1.1 kg/m3
mass density (308.15 K, m1 = 0.0607): 997 ± 1.1 kg/m3
mass density (308.15 K, m1 = 0.0914): 998.5 ± 1.1 kg/m3
mass density (308.15 K, m1 = 0.122): 999.9 ± 1.1 kg/m3
mass density (308.15 K, m1 = 0.1533): 1001.4 ± 1.1 kg/m3
mass density (313.15 K, m1 = 0.0302): 993.7 ± 1.1 kg/m3
mass density (313.15 K, m1 = 0.0607): 995.2 ± 1.1 kg/m3
mass density (313.15 K, m1 = 0.0914): 996.7 ± 1.1 kg/m3
mass density (313.15 K, m1 = 0.122): 998.1 ± 1.1 kg/m3
mass density (313.15 K, m1 = 0.1533): 999.6 ± 1.1 kg/m3
mass density (318.15 K, m1 = 0.0302): 991.7 ± 1.2 kg/m3
mass density (318.15 K, m1 = 0.0607): 993.2 ± 1.2 kg/m3
mass density (318.15 K, m1 = 0.0914): 994.7 ± 1.2 kg/m3
mass density (318.15 K, m1 = 0.122): 996.1 ± 1.2 kg/m3
mass density (318.15 K, m1 = 0.1533): 997.6 ± 1.2 kg/m3
mass density (323.15 K, m1 = 0.0302): 989.5 ± 1.2 kg/m3
mass density (323.15 K, m1 = 0.0607): 991 ± 1.2 kg/m3
mass density (323.15 K, m1 = 0.0914): 992.5 ± 1.2 kg/m3
mass density (323.15 K, m1 = 0.122): 993.9 ± 1.2 kg/m3
mass density (323.15 K, m1 = 0.1533): 995.4 ± 1.2 kg/m3
